Data published in patent publication US9090600B2, “Fungicidal 4-substituted-3-{phenyl[(heterocyclylmethoxy)imino]methyl}-1,2,4-oxadizol-5(4H)-one derivatives” (BAYER INTELLECTUAL PROPERTY GMBH, priority 2011, dated 2015).
Read-outs that look alike come from different tables or passages of the source. Marks after values point to notes of the source that are not given here.

Legend:
[1] = tested on: Phytophthora infestans; format: in vivo; conditions: tomato, preventive spray, 100 ppm of active ingredient, evaluated 7 days after inoculation
[2] = tested on: Plasmopara viticola; assay: Plasmopara test (grapevines)/preventive; format: in vivo; conditions: preventive spray, 10 ppm of active ingredient, evaluated 6 days after inoculation
Experimental: Solvent: 24.5 parts by weight of acetone • 24.5 parts by weight of dimethylacetamide
Emulsifier: 1 part by weight of alkylaryl polyglycol ether
To produce a suitable preparation of active compound, 1 part by weight of active compound is mixed with the stated amounts of solvent and emulsifier, and the concentrate is diluted with water to the desired concentration.
To test for preventive activity, young plants are sprayed with the preparation of active compound at the stated rate of application. After the spray coating has dried on, the plants are inoculated with an aqueous spore suspension of Plasmopara viticola and then remain for 1 day in an incubation cabinet at approximately 20° C. and a relative atmospheric humidity of 100%. The plant is subsequently placed for 4 days in a greenhouse at approximately 21° C. and a relative atmospheric humidity of approximately 90%. The plants are then misted and placed for 1 day in an incubation cabinet.
The test is evaluated 6 days after the inoculation. 0% means an efficacy which corresponds to that of the untreated control, while an efficacy of 100% means that no disease is observed.

[3] = tested on: Phytophthora infestans; format: in vivo; conditions: tomato plants, spray, 500 ppm, grading 5 days after contamination
[4] = pH 2.7
[5] = tested on: Mycosphaerella graminicola; assay: In vivo test on Mycosphaerella graminicola (wheat leaf spot); conditions: wheat plants, spray, 500 ppm, grading 21 to 28 days after contamination
Experimental: The active ingredients tested are prepared by homogenization in a mixture of acetone/tween/DMSO, then diluted with water to obtain the desired active material concentration.
Wheat plants (Scipion variety), sown on a 50/50 peat soil-pozzolana substrate in starter cups and grown at 22° C. (12 h)/20° C. (12 h), are treated at the 1-leaf stage (10 cm tall) by spraying with the aqueous suspension described above. Plants, used as controls, are treated with an aqueous solution not containing the active material.
After 24 hours, the plants are contaminated by spraying them with an aqueous suspension of cryopreserved Mycosphaerella graminicola spores (500.000 spores per ml). The contaminated wheat plants are incubated for 72 hours at 18° C. and at 100% relative humidity, and then for 21 to 28 days at 90% relative humidity.
Grading (% of efficacy) is carried out 21 to 28 days after the contamination, in comparison with the control plants.
(§1) Under these conditions, good (at least 70%) or total protection is observed at a dose of 500 ppm with the following compounds: […]

[6] = tested on: Puccinia recondita; assay: In vivo test on Puccinia recondita (brown rust); conditions: wheat plants, spray, 500 ppm, grading 10 days after contamination
Experimental: The active ingredients tested are prepared by homogenization in a mixture of acetone/tween/DMSO, then diluted with water to obtain the desired active material.
Wheat plants (Scipion variety) sown on 50/50 peat soil-pozzolana substrate in starter cups and grown at 22° C. (12 h)/20° C. (12 h), are treated at the 1-leaf stage (10 cm tall) by spraying with the aqueous suspension described above.
Plants, used as controls, are treated with an aqueous solution not containing the active material. After 24 hours, the plants are contaminated by spraying the leaves with an aqueous suspension of Puccinia recondite spores (100.000 spores per ml). The spores are collected from a 10-day-old contaminated wheat and are suspended in water containing 2.5 ml/l of tween 80 10%. The contaminated wheat plants are incubated for 24 hours at 20° C. and at 100% relative humidity, and then for 10 days at 20° C. and at 70% relative humidity. Grading is carried out 10 days after the contamination, in comparison with the control plants.
as §1

SMILES: CCCCCCC(=O)Nc1cccc(CO/N=C(/c2ccccc2)c2noc(=O)n2C)n1 [Example 8]
- Eff. % [1]: 98%
- Eff. % [2]: 99%
- Eff. % [3]: 100%
- LogP [4]: 4.3 [a]

SMILES: Cn1c(/C(=N\OCc2csc(NC(=O)C3CCc4ccccc4O3)n2)c2ccccc2)noc1=O (stereo not drawn) [Example 11]
- Eff. % [1]: 100%
- Eff. % [2]: 98%
- LogP [4]: 3.94 [a]

SMILES: CCCCCOC(=O)Nc1nc(CO/N=C(/c2ccccc2)c2noc(=O)n2C)cs1 [Example 12]
- Eff. % [1]: 95%
- Eff. % [2]: 94%
- LogP [4]: 4.11 [a]

SMILES: CCCCC(=O)Nc1nc(CO/N=C(/c2ccccc2)c2noc(=O)n2C)cs1 [Example 13]
- Eff. % [1]: 95%
- Eff. % [2]: 93%
- LogP [4]: 3.37 [a]

SMILES: Cn1c(/C(=N\OCc2cccc(NC(=O)OCC3CCCC3)n2)c2ccccc2)noc1=O [Example 16]
- Eff. % [1]: 98%
- Eff. % [2]: 94%
- LogP [4]: 4.53 [a]

SMILES: Cn1c(/C(=N\OCc2cccc(NC(=O)c3cccc(F)c3)n2)c2ccccc2)noc1=O [Example 17]
- Eff. % [1]: 98%
- Eff. % [2]: 94%
- LogP [4]: 3.69 [a]

SMILES: Cn1c(/C(=N\OCc2csc(NC(=O)c3cccc(F)c3)n2)c2ccccc2)noc1=O [Example 20]
- Eff. % [1]: 95%
- Eff. % [2]: 94%
- LogP [4]: 3.6 [a]

SMILES: Cc1cccc(/C(=N/OCc2cccc(N)n2)c2noc(=O)n2C)c1 [Example 30]
- Eff. % [3]: 100%
- Eff. % [5]: 86%
- LogP [4]: 1.45 [a]

SMILES: Cn1c(/C(=N\OCc2csc(NC(=O)c3ccccc3Cl)n2)c2ccccc2)noc1=O [Example 57]
- Eff. % [3]: 85%
- Eff. % [5]: 79%
- LogP [4]: 3.46 [a]

SMILES: Cn1c(/C(=N\OCc2cccc(NC(=O)CCCl)n2)c2ccccc2)noc1=O [Example 63]
- Eff. % [3]: 100%
- Eff. % [6]: 75%
- LogP [4]: 3.02 [a]

SMILES: Cn1c(/C(=N\OCc2cccc(NC(=O)CCCCBr)n2)c2ccccc2)noc1=O [Example 73]
- Eff. % [3]: 100%
- Eff. % [6]: 81%
- LogP [4]: 3.59 [a]

SMILES: Cn1c(/C(=N\OCc2cccc(NCCc3ccccc3)n2)c2ccccc2)noc1=O [Example 74]
- Eff. % [1]: 95%
- Eff. % [2]: 94%
- LogP [4]: 2.78 [a]

SMILES: Cn1c(/C(=N\OCc2cccc(NC(=O)CCC3CCCCC3)n2)c2ccccc2)noc1=O [Example 77]
- Eff. % [3]: 100%
- Eff. % [5]: 71%
- LogP [4]: 4.73 [a]

SMILES: CCn1c(/C(=N\OCc2cccc(NC(=O)Cc3ccc(OC)cc3)n2)c2ccccc2)noc1=O [Example 88]
- Eff. % [3]: 98%
- Eff. % [6]: 78%
- LogP [4]: 3.7 [a]

SMILES: C#CCCOC(=O)Nc1cccc(CO/N=C(/c2ccccc2)c2noc(=O)n2CC)n1 [Example 104]
- Eff. % [1]: 93%
- Eff. % [2]: 100%
- LogP [4]: 3.51 [a]

SMILES: COc1cccc(/C(=N/OCc2cccc(N)n2)c2noc(=O)n2C)c1 [Example 108]
- Eff. % [3]: 100%
- Eff. % [5]: 71%
- LogP [4]: 1.32 [a]

SMILES: CCC(C)(C)OC(=O)Nc1cccc(CO/N=C(/c2ccccc2)c2noc(=O)n2C)n1 [Example 120]
- Eff. % [2]: 84%
- Eff. % [3]: 100%
- Eff. % [6]: 98%
- LogP [4]: 1.99 [a]

SMILES: CCn1c(/C(=N\OCc2cccc(NC(=O)C3COc4ccccc4O3)n2)c2ccccc2)noc1=O (stereo not drawn) [Example 130]
- Eff. % [3]: 100%
- Eff. % [5]: 86%
- LogP [4]: 4.14 [a]

SMILES: COc1cccc(/C(=N/OCc2cccc(NC(=O)OC(C)(C)C)n2)c2noc(=O)n2C)c1 [Example 131]
- Eff. % [3]: 100%
- Eff. % [6]: 81%
- LogP [4]: 3.99 [a]

SMILES: Cn1c(/C(=N\OCc2cccc(NC/C=N/OCc3ccccc3)n2)c2ccccc2)noc1=O [Example 136]
- Eff. % [1]: 95%
- Eff. % [2]: 75%
- LogP [4]: 3.35 [a]

SMILES: Cn1c(/C(=N\OCc2cccc(NC(=O)C(C)(C)C)n2)c2ccccc2)noc1=O [Example 148]
- Eff. % [1]: 97%
- Eff. % [2]: 100%
- Eff. % [3]: 100%
- LogP [4]: 3.48 [a]

SMILES: COc1cccc(CCOC(=O)Nc2cccc(CO/N=C(/c3ccccc3)c3noc(=O)n3C)n2)c1 [Example 151]
- Eff. % [3]: 85%
- Eff. % [5]: 92%
- LogP [4]: 4.11 [a]

SMILES: Cn1c(/C(=N\OCc2csc(NC(=O)c3ccccc3I)n2)c2ccccc2)noc1=O [Example 158]
- Eff. % [3]: 85%
- Eff. % [5]: 80%
- LogP [4]: 3.6 [a]

SMILES: CCCCCCNc1cccc(CO/N=C(/c2ccccc2)c2noc(=O)n2C)n1 [Example 163]
- Eff. % [1]: 95%
- Eff. % [2]: 96%
- LogP [4]: 2.64 [a]

SMILES: COc1ccc(/C(=N/OCc2cccc(NC(=O)C(F)(F)F)n2)c2noc(=O)n2C)cc1 [Example 191]
- Eff. % [3]: 95%
- Eff. % [6]: 89%
- LogP [4]: 3.37 [a]

SMILES: CCCCCC(=O)Nc1nc(CO/N=C(/c2ccccc2)c2noc(=O)n2C)cs1 [Example 198]
- Eff. % [1]: 95%
- Eff. % [2]: 100%
- LogP [4]: 3.76 [a]

SMILES: C#CCCC(C)OC(=O)Nc1cccc(CO/N=C(/c2ccccc2)c2noc(=O)n2CC)n1 (stereo not drawn) [Example 207]
- Eff. % [3]: 100%
- Eff. % [5]: 79%
- LogP [4]: 4.04 [a]

SMILES: CCCCOC(=O)Nc1cccc(CO/N=C(/c2cccc(C)c2)c2noc(=O)n2C)n1 [Example 215]
- Eff. % [3]: 98%
- Eff. % [6]: 81%
- LogP [4]: 4.36 [a]

SMILES: Cc1cccc(/C(=N/OCc2cccc(NC(=O)OC(C)CC(C)C)n2)c2noc(=O)n2C)c1 (stereo not drawn) [Example 223]
- Eff. % [5]: 80%
- LogP [4]: 5.05 [a]

SMILES: CC(C)C(C)OC(=O)Nc1cccc(CO/N=C(/c2ccccc2)c2noc(=O)n2C)n1 (stereo not drawn) [Example 292]
- Eff. % [2]: 90%
- Eff. % [3]: 99%
- Eff. % [6]: 75%
- LogP [4]: 4.27 [a]

SMILES: C#CC(C)(C)OC(=O)Nc1cccc(CO/N=C(/c2ccccc2)c2noc(=O)n2C)n1 [Example 317]
- Eff. % [2]: 91%
- Eff. % [3]: 98%
- Eff. % [6]: 81%
- LogP [4]: 3.6 [a]

SMILES: Cn1c(/C(=N\OCc2cccc(NC(=O)CCc3ccccc3)n2)c2ccc(F)cc2)noc1=O [Example 324]
- Eff. % [3]: 94%
- Eff. % [6]: 75%
- LogP [4]: 3.87 [a]

SMILES: COc1cccc(/C(=N/OCc2cccc(NC(=O)OCCc3ccccc3)n2)c2noc(=O)n2C)c1 [Example 325]
- Eff. % [2]: 84%
- Eff. % [3]: 99%
- Eff. % [6]: 75%
- LogP [4]: 4.19 [a]

SMILES: Cn1c(/C(=N\OCc2cccc(N(C(=O)Oc3ccc(F)cc3)C(=O)Oc3ccc(F)cc3)n2)c2ccccc2)noc1=O [Example 330]
- Eff. % [5]: 83%
- LogP [4]: 4.2 [a]

SMILES: Cn1c(/C(=N\OCc2cccc(NC(=O)CCc3ccccc3)n2)c2ccccc2)noc1=O [Example 347]
- Eff. % [1]: 92%
- Eff. % [2]: 100%
- Eff. % [3]: 100%
- LogP [4]: 3.78 [a]

SMILES: Cn1c(/C(=N\OCc2cccc(NC(=O)OC3CCCCC3)n2)c2ccc(F)cc2)noc1=O [Example 351]
- Eff. % [3]: 93%
- Eff. % [6]: 75%
- LogP [4]: 4.54 [a]

SMILES: C#CCCC(C)OC(=O)Nc1cccc(CO/N=C(/c2ccccc2)c2noc(=O)n2C)n1 (stereo not drawn) [Example 395]
- Eff. % [2]: 93%
- Eff. % [3]: 99%
- Eff. % [6]: 72%
- LogP [4]: 3.8 [a]

SMILES: C#CCCOC(=O)Nc1cccc(CO/N=C(/c2ccccc2)c2noc(=O)n2CC=C)n1 [Example 405]
- Eff. % [1]: 95%
- Eff. % [2]: 85%
- LogP [4]: 3.61 [a]
